Experimental data: PubChem BioAssay (NCI)
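Dose response: 5 concentrations. Exposure: 48 h. Format: 96-well plates. Endpoint: linear interpolation; highest concentration if not reached. GI50 is the concentration that inhibits growth by half. TGI marks complete inhibition of growth.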

Columns and labels:
Assay in all cases: NCI anticancer screen, dose series, 48 h
SK-MEL-28 melanoma = test system: SK-MEL-28 melanoma
NCI/ADR-RES ovarian = test system: NCI/ADR-RES ovarian
LOX IMVI melanoma = test system: LOX IMVI melanoma
CCRF-CEM leukemia = test system: CCRF-CEM leukemia
TK-10 renal = test system: TK-10 renal
MOLT-4 leukemia = test system: MOLT-4 leukemia
OVCAR-4 ovarian = test system: OVCAR-4 ovarian
786-0 renal = test system: 786-0 renal
SF-539 CNS = test system: SF-539 CNS
ACHN renal = test system: ACHN renal
SNB-19 CNS = test system: SNB-19 CNS
HCT-15 colon = test system: HCT-15 colon
KM12 colon = test system: KM12 colon
SF-295 CNS = test system: SF-295 CNS
HCC-2998 colon = test system: HCC-2998 colon
MCF7 breast = test system: MCF7 breast
SNB-75 CNS = test system: SNB-75 CNS
RPMI-8226 leukemia = test system: RPMI-8226 leukemia
UO-31 renal = test system: UO-31 renal
IGROV1 ovarian = test system: IGROV1 ovarian
A498 renal = test system: A498 renal
OVCAR-8 ovarian = test system: OVCAR-8 ovarian
K-562 leukemia = test system: K-562 leukemia
MDA-MB-231 breast = test system: MDA-MB-231 breast
HCT-116 colon = test system: HCT-116 colon
UACC-62 melanoma = test system: UACC-62 melanoma
HT29 colon = test system: HT29 colon
BT-549 breast = test system: BT-549 breast
SF-268 CNS = test system: SF-268 CNS
NCI-H23 lung = test system: NCI-H23 lung
T-47D breast = test system: T-47D breast
NCI-H460 lung = test system: NCI-H460 lung
RXF 393 renal = test system: RXF 393 renal
NCI-H522 lung = test system: NCI-H522 lung
PC-3 prostate = test system: PC-3 prostate
SW-620 colon = test system: SW-620 colon
M14 melanoma = test system: M14 melanoma
NCI-H226 lung = test system: NCI-H226 lung
HOP-62 NSCLC = test system: HOP-62 NSCLC
HOP-92 NSCLC = test system: HOP-92 NSCLC
OVCAR-5 ovarian = test system: OVCAR-5 ovarian
SK-OV-3 ovarian = test system: SK-OV-3 ovarian
OVCAR-3 ovarian = test system: OVCAR-3 ovarian
SK-MEL-2 melanoma = test system: SK-MEL-2 melanoma
SK-MEL-5 melanoma = test system: SK-MEL-5 melanoma
U251 CNS = test system: U251 CNS
MALME-3M melanoma = test system: MALME-3M melanoma
DU-145 prostate = test system: DU-145 prostate
A549 NSCLC = test system: A549 NSCLC
SR leukemia = test system: SR leukemia
COLO 205 colon = test system: COLO 205 colon
MDA-MB-435 = test system: MDA-MB-435
SN12C renal = test system: SN12C renal
CAKI-1 renal = test system: CAKI-1 renal
HL-60(TB) leukemia = test system: HL-60(TB) leukemia

SMILES: C=CC(C)c1cccc(C=O)c1O (stereo not given)
- GI50 (SK-MEL-28 melanoma): > 100 µM
- TGI (SK-MEL-28 melanoma): > 100 µM
- GI50 (NCI/ADR-RES ovarian): 19.6 µM
- TGI (NCI/ADR-RES ovarian): > 100 µM
- GI50 (LOX IMVI melanoma): 30.7 µM
- TGI (LOX IMVI melanoma): > 100 µM
- GI50 (CCRF-CEM leukemia): 17.4 µM
- TGI (CCRF-CEM leukemia): > 100 µM
- GI50 (TK-10 renal): 38.8 µM
- TGI (TK-10 renal): > 100 µM
- GI50 (MOLT-4 leukemia): 8.45 µM
- TGI (MOLT-4 leukemia): > 100 µM
- GI50 (OVCAR-4 ovarian): 75.4 µM
- TGI (OVCAR-4 ovarian): > 100 µM
- GI50 (786-0 renal): 97.1 µM
- TGI (786-0 renal): > 100 µM
- GI50 (SF-539 CNS): 45 µM
- TGI (SF-539 CNS): > 100 µM
- GI50 (ACHN renal): 80.9 µM
- TGI (ACHN renal): > 100 µM
- GI50 (SNB-19 CNS): 74.2 µM
- TGI (SNB-19 CNS): > 100 µM
- GI50 (HCT-15 colon): 22 µM
- TGI (HCT-15 colon): > 100 µM
- GI50 (KM12 colon): 91.6 µM
- TGI (KM12 colon): > 100 µM
- GI50 (SF-295 CNS): > 100 µM
- TGI (SF-295 CNS): > 100 µM
- GI50 (HCC-2998 colon): > 100 µM
- TGI (HCC-2998 colon): > 100 µM
- GI50 (MCF7 breast): 15.8 µM
- TGI (MCF7 breast): > 100 µM
- GI50 (SNB-75 CNS): 35.1 µM
- TGI (SNB-75 CNS): > 100 µM
- GI50 (RPMI-8226 leukemia): 19.7 µM
- TGI (RPMI-8226 leukemia): > 100 µM
- GI50 (UO-31 renal): 57.9 µM
- TGI (UO-31 renal): > 100 µM
- GI50 (IGROV1 ovarian): 37 µM
- TGI (IGROV1 ovarian): > 100 µM
- GI50 (A498 renal): > 100 µM
- TGI (A498 renal): > 100 µM
- GI50 (OVCAR-8 ovarian): 73.6 µM
- TGI (OVCAR-8 ovarian): > 100 µM
- GI50 (K-562 leukemia): 4.08 µM
- TGI (K-562 leukemia): > 100 µM
- GI50 (MDA-MB-231 breast): 27.3 µM
- TGI (MDA-MB-231 breast): > 100 µM
- GI50 (HCT-116 colon): 18.1 µM
- TGI (HCT-116 colon): > 100 µM
- GI50 (UACC-62 melanoma): 44.6 µM
- TGI (UACC-62 melanoma): > 100 µM
- GI50 (HT29 colon): 37 µM
- TGI (HT29 colon): > 100 µM
- GI50 (BT-549 breast): 23.8 µM
- TGI (BT-549 breast): > 100 µM
- GI50 (SF-268 CNS): 35.8 µM
- TGI (SF-268 CNS): > 100 µM
- GI50 (NCI-H23 lung): > 100 µM
- TGI (NCI-H23 lung): > 100 µM
- GI50 (T-47D breast): 28.8 µM
- TGI (T-47D breast): > 100 µM
- GI50 (NCI-H460 lung): > 100 µM
- TGI (NCI-H460 lung): > 100 µM
- GI50 (RXF 393 renal): 37 µM
- TGI (RXF 393 renal): > 100 µM
- GI50 (NCI-H522 lung): > 100 µM
- TGI (NCI-H522 lung): > 100 µM
- GI50 (PC-3 prostate): 26.7 µM
- TGI (PC-3 prostate): > 100 µM
- GI50 (SW-620 colon): 27.2 µM
- TGI (SW-620 colon): > 100 µM
- GI50 (M14 melanoma): 27.3 µM
- TGI (M14 melanoma): > 100 µM
- GI50 (NCI-H226 lung): > 100 µM
- TGI (NCI-H226 lung): > 100 µM
- GI50 (HOP-62 NSCLC): 49.3 µM
- TGI (HOP-62 NSCLC): > 100 µM
- GI50 (HOP-92 NSCLC): 4.93 µM
- TGI (HOP-92 NSCLC): 70.5 µM
- GI50 (OVCAR-5 ovarian): > 100 µM
- TGI (OVCAR-5 ovarian): > 100 µM
- GI50 (SK-OV-3 ovarian): > 100 µM
- TGI (SK-OV-3 ovarian): > 100 µM
- GI50 (OVCAR-3 ovarian): 58.3 µM
- TGI (OVCAR-3 ovarian): > 100 µM
- GI50 (SK-MEL-2 melanoma): 54 µM
- TGI (SK-MEL-2 melanoma): > 100 µM
- GI50 (SK-MEL-5 melanoma): 49.2 µM
- TGI (SK-MEL-5 melanoma): > 100 µM
- GI50 (U251 CNS): 42.6 µM
- TGI (U251 CNS): > 100 µM
- GI50 (MALME-3M melanoma): > 100 µM
- TGI (MALME-3M melanoma): > 100 µM
- GI50 (DU-145 prostate): 94.9 µM
- TGI (DU-145 prostate): > 100 µM
- GI50 (A549 NSCLC): > 100 µM
- TGI (A549 NSCLC): > 100 µM
- GI50 (SR leukemia): 3.82 µM
- TGI (SR leukemia): > 100 µM
- GI50 (COLO 205 colon): > 100 µM
- TGI (COLO 205 colon): > 100 µM
- GI50 (MDA-MB-435): 4.47 µM
- TGI (MDA-MB-435): 41.7 µM
- GI50 (SN12C renal): 53.7 µM
- TGI (SN12C renal): > 100 µM
- GI50 (CAKI-1 renal): 45 µM
- TGI (CAKI-1 renal): > 100 µM
- GI50 (HL-60(TB) leukemia): 19.9 µM
- TGI (HL-60(TB) leukemia): > 100 µM
